Reference: the CheMixHub viscosity set
Several values for one entry are separate records, joined by “and”; a condition that tells them apart may be missing. Equal values may be shown once. ± gives the uncertainty stated by the source.

Experiment: xn = mol fraction of the nth substance listed

CC(C)C[C@H](N)C(=O)O + O
Conditions	viscosity
293.15 K, 100 kPa, x1 = 0.000274	1.013 ± 0.061 mPa·s
293.15 K, 100 kPa, x1 = 0.000645	1.038 ± 0.12 mPa·s
293.15 K, 100 kPa, x1 = 0.000947	1.055 ± 0.12 mPa·s
293.15 K, 100 kPa, x1 = 0.00132	1.076 ± 0.12 mPa·s
293.15 K, 100 kPa, x1 = 0.00136	1.04 ± 0.061 mPa·s
293.15 K, 100 kPa, x1 = 0.00153	1.044 ± 0.061 mPa·s
293.15 K, 100 kPa, x1 = 0.00162	1.093 ± 0.12 mPa·s
293.15 K, 100 kPa, x1 = 0.00172	1.048 ± 0.061 mPa·s
293.15 K, 100 kPa, x1 = 0.002001	1.114 ± 0.12 mPa·s
293.15 K, 100 kPa, x1 = 0.00234	1.133 ± 0.12 mPa·s
298.15 K, 100 kPa, x1 = 0.000274	0.9 ± 0.06 mPa·s
298.15 K, 100 kPa, x1 = 0.000292	0.8985 ± 0.12 mPa·s
298.15 K, 100 kPa, x1 = 0.000459	0.905 ± 0.06 mPa·s
298.15 K, 100 kPa, x1 = 0.000806	0.913 ± 0.06 mPa·s
298.15 K, 100 kPa, x1 = 0.000995	0.917 ± 0.06 mPa·s
298.15 K, 100 kPa, x1 = 0.00117	0.921 ± 0.06 mPa·s
298.15 K, 100 kPa, x1 = 0.00132	0.9262 ± 0.12 mPa·s
298.15 K, 100 kPa, x1 = 0.00136	0.925 ± 0.06 mPa·s
298.15 K, 100 kPa, x1 = 0.00153	0.929 ± 0.06 mPa·s
298.15 K, 100 kPa, x1 = 0.00162	0.9344 ± 0.12 mPa·s
298.15 K, 100 kPa, x1 = 0.00172	0.933 ± 0.061 mPa·s
298.15 K, 100 kPa, x1 = 0.002001	0.9447 ± 0.12 mPa·s
298.15 K, 100 kPa, x1 = 0.00234	0.9538 ± 0.12 mPa·s
303.15 K, 100 kPa, x1 = 0.000274	0.807 ± 0.06 mPa·s
303.15 K, 100 kPa, x1 = 0.000292	0.8043 ± 0.12 mPa·s
303.15 K, 100 kPa, x1 = 0.000459	0.811 ± 0.06 mPa·s
303.15 K, 100 kPa, x1 = 0.000632	0.815 ± 0.06 mPa·s
303.15 K, 100 kPa, x1 = 0.000645	0.8124 ± 0.12 mPa·s
303.15 K, 100 kPa, x1 = 0.000806	0.819 ± 0.06 mPa·s
303.15 K, 100 kPa, x1 = 0.000947	0.8194 ± 0.12 mPa·s
303.15 K, 100 kPa, x1 = 0.000995	0.823 ± 0.06 mPa·s
303.15 K, 100 kPa, x1 = 0.00117	0.826 ± 0.06 mPa·s
303.15 K, 100 kPa, x1 = 0.00132	0.828 ± 0.12 mPa·s
303.15 K, 100 kPa, x1 = 0.00136	0.83 ± 0.06 mPa·s
303.15 K, 100 kPa, x1 = 0.00153	0.834 ± 0.06 mPa·s
303.15 K, 100 kPa, x1 = 0.00162	0.8351 ± 0.12 mPa·s
303.15 K, 100 kPa, x1 = 0.00172	0.838 ± 0.06 mPa·s
303.15 K, 100 kPa, x1 = 0.002001	0.8439 ± 0.12 mPa·s
303.15 K, 100 kPa, x1 = 0.00234	0.8517 ± 0.12 mPa·s
303.15 K, 101 kPa, x1 = 0.0004	0.804 ± 0.007 mPa·s
303.15 K, 101 kPa, x1 = 0.0007	0.809 ± 0.007 mPa·s
303.15 K, 101 kPa, x1 = 0.001	0.817 ± 0.007 mPa·s and 0.827 ± 0.008 mPa·s
303.15 K, 101 kPa, x1 = 0.0018	0.834 ± 0.008 mPa·s
305.15 K, 101 kPa, x1 = 0.0003598	0.7908 ± 0.0051 mPa·s
305.15 K, 101 kPa, x1 = 0.0007199	0.7974 ± 0.0052 mPa·s
305.15 K, 101 kPa, x1 = 0.00108	0.8054 ± 0.0052 mPa·s
305.15 K, 101 kPa, x1 = 0.001439	0.8126 ± 0.0052 mPa·s
305.15 K, 101 kPa, x1 = 0.001798	0.8203 ± 0.0053 mPa·s
305.15 K, 101 kPa, x1 = 0.002157	0.8283 ± 0.0053 mPa·s
308.15 K, 100 kPa, x1 = 0.000274	0.729 ± 0.06 mPa·s
308.15 K, 100 kPa, x1 = 0.000292	0.7252 ± 0.12 mPa·s
308.15 K, 100 kPa, x1 = 0.000632	0.736 ± 0.06 mPa·s
308.15 K, 100 kPa, x1 = 0.000645	0.7323 ± 0.12 mPa·s
308.15 K, 100 kPa, x1 = 0.000806	0.74 ± 0.06 mPa·s
308.15 K, 100 kPa, x1 = 0.000947	0.7384 ± 0.12 mPa·s
308.15 K, 100 kPa, x1 = 0.000995	0.744 ± 0.06 mPa·s
308.15 K, 100 kPa, x1 = 0.00117	0.747 ± 0.06 mPa·s
308.15 K, 100 kPa, x1 = 0.00132	0.7458 ± 0.12 mPa·s
308.15 K, 100 kPa, x1 = 0.00153	0.755 ± 0.06 mPa·s
308.15 K, 100 kPa, x1 = 0.00162	0.752 ± 0.12 mPa·s
308.15 K, 100 kPa, x1 = 0.00172	0.758 ± 0.06 mPa·s
308.15 K, 100 kPa, x1 = 0.002001	0.7597 ± 0.12 mPa·s
308.15 K, 100 kPa, x1 = 0.00234	0.7665 ± 0.12 mPa·s
308.15 K, 101 kPa, x1 = 0.0007	0.731 ± 0.007 mPa·s
308.15 K, 101 kPa, x1 = 0.001	0.739 ± 0.007 mPa·s and 0.746 ± 0.007 mPa·s
308.15 K, 101 kPa, x1 = 0.0018	0.753 ± 0.007 mPa·s
310.15 K, 101 kPa, x1 = 0.0003598	0.709 ± 0.0047 mPa·s
310.15 K, 101 kPa, x1 = 0.0007199	0.7151 ± 0.0047 mPa·s
310.15 K, 101 kPa, x1 = 0.00108	0.7218 ± 0.0048 mPa·s
310.15 K, 101 kPa, x1 = 0.001439	0.7272 ± 0.0048 mPa·s
310.15 K, 101 kPa, x1 = 0.001798	0.7334 ± 0.0048 mPa·s
310.15 K, 101 kPa, x1 = 0.002157	0.7401 ± 0.0049 mPa·s
313.15 K, 100 kPa, x1 = 0.000274	0.663 ± 0.06 mPa·s
313.15 K, 100 kPa, x1 = 0.000292	0.6581 ± 0.12 mPa·s
313.15 K, 100 kPa, x1 = 0.000459	0.667 ± 0.06 mPa·s
313.15 K, 100 kPa, x1 = 0.000632	0.67 ± 0.06 mPa·s
313.15 K, 100 kPa, x1 = 0.000645	0.6643 ± 0.12 mPa·s
313.15 K, 100 kPa, x1 = 0.000806	0.674 ± 0.06 mPa·s
313.15 K, 100 kPa, x1 = 0.000947	0.6696 ± 0.12 mPa·s
313.15 K, 100 kPa, x1 = 0.00132	0.676 ± 0.12 mPa·s
313.15 K, 100 kPa, x1 = 0.00162	0.6814 ± 0.12 mPa·s
313.15 K, 100 kPa, x1 = 0.002001	0.688 ± 0.12 mPa·s
313.15 K, 100 kPa, x1 = 0.00234	0.694 ± 0.12 mPa·s
313.15 K, 101 kPa, x1 = 0.0004	0.658 ± 0.006 mPa·s
313.15 K, 101 kPa, x1 = 0.0007	0.663 ± 0.006 mPa·s
313.15 K, 101 kPa, x1 = 0.001	0.669 ± 0.006 mPa·s and 0.677 ± 0.006 mPa·s
313.15 K, 101 kPa, x1 = 0.0018	0.682 ± 0.006 mPa·s
315.15 K, 101 kPa, x1 = 0.0003598	0.6544 ± 0.0045 mPa·s
315.15 K, 101 kPa, x1 = 0.0007199	0.6599 ± 0.0045 mPa·s
315.15 K, 101 kPa, x1 = 0.00108	0.6653 ± 0.0045 mPa·s
315.15 K, 101 kPa, x1 = 0.001439	0.6699 ± 0.0045 mPa·s
315.15 K, 101 kPa, x1 = 0.001798	0.6752 ± 0.0046 mPa·s
315.15 K, 101 kPa, x1 = 0.002157	0.6803 ± 0.0046 mPa·s
318.15 K, 101 kPa, x1 = 0.0007	0.605 ± 0.006 mPa·s
318.15 K, 101 kPa, x1 = 0.001	0.611 ± 0.006 mPa·s and 0.618 ± 0.006 mPa·s
318.15 K, 101 kPa, x1 = 0.0018	0.622 ± 0.006 mPa·s
